Experiment [1] relates to phosphorylation of IRAK4 kinase target protein NFkB. In words: AlphaLISA SureFire Ultra p-NFκB (Ser536) assay after LPS. Type of experiment: cell-based, human. Particulars: doses 16 nM, 80 nM, 400 nM and 2000 nM; LPS 300 ng/ml. On the procedure: IRAK4 targeting drugs and AAV Treatments. Dendritic cells were plated in 96 well plates with 200,000 cells per well. Each treatment was performed in triplicates. Cells were treated with zimlovisertib IRAK4 inhibitor (Synonyms: PF-06650833) Cat. No.: HY-19836 (MedChemExpress) and PROTAC IRAK4 degrader-1 Cat. No.: HY-129966 (MedChemExpress) at 16 nm, 80 nm, 400 nm and 2000 nm for 18 hrs at 37° C., 5% CO2 in an incubator. After pre-treatment of 18 hrs with the drugs, AAV vectors at 1e5 MOI were used. The cells were incubated at 37° C., 5% CO2 in an incubator for 24 hours. After 24 hours, plates were centrifuged and media supernatant was collected. The clarified media was analyzed by Meso Scale Discovery MSD (world wide web mesoscale.com/products/v-plex-proinflammatory-panel-1-human-kit-k15049d/) performed by DC3 therapeutics https://www.dc3therapeutics.com/services. The experiment outline of PBMC isolation, monocyte purification and dendritic cell differentiation is illustrated in FIG. 1. […]
AlphaLISA assay. […] Finally, SA-donor beads are added and 30 min later plates are read using EnVision-Alpha Reader (615 nm) https://resources.perkinelmer.com/lab-solutions/resources/docs/MAN_AlphaLISA_IRAK4_AL3117.pdf?_gl=1*7jzf5d*_ga*MzQ4MTQ1NzA3LjE2NDY2NzY5MjI.*_ga_W34ZJ1Z1Q1*MTY3NzE5MjAyOS4zLjEuMTY3NzE5MjA2Mi4yNy4wLjA.&_ga=2.178521252.1409175695.1677192029-348145707.1646676922. […]
A general note: Alpha assays give light when donor and acceptor beads are brought close together.

In experiment [2] the target is T1, IRAK4 protein (Mus musculus, UniProt Q8R4K2).
T1 construct: from tissue; host or cells: PBMCs from blood of C57BL/6J mice
T1 sequence (Q8R4K2 1-459): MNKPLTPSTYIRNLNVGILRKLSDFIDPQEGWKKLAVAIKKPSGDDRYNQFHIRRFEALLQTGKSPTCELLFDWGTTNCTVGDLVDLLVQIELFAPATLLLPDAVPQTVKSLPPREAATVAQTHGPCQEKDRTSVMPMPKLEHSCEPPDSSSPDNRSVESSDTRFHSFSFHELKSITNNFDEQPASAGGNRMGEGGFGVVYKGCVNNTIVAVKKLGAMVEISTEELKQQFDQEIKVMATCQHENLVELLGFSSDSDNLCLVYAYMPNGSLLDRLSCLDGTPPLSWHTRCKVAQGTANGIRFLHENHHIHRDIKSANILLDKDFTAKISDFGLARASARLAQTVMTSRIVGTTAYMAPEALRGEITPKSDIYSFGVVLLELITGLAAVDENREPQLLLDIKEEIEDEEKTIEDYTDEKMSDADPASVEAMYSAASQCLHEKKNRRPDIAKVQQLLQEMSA
In words: In vivo mouse AAV model: IRAK4 expression in PBMC immune cell types by flow cytometry. The following applies: chow 100 mg/kg from 15 days prior to AAV; day 14; N=6. How it is done:
The same experiment design was followed with n=6 mice in each group PBS group, AAV group and AAV+IRAK4 degrader PROTAC IRAK4 degrader-1 Cat. No.: HY-129966 (MedChemExpress) that was mixed with chow at 100 mg/kg and fed to mice 15 days prior to AAV injection. […] AAV capsid used in the study had LacZ transgene. All animal experiments were conducted in accordance with the Institutional Animal Care and Use Committees at Sanofi, Framingham. Submandibular bleeds were performed weekly, and necropsy was performed three weeks post AAV injection.
PBMC isolation and surface staining. 120 ul blood was collected in K2EDTA coated tubes. The blood was mixed with DBPS at 1:1 ration and pipetted into a separate tube containing Ficoll (GE17-5442-02) to ensure no mixing of the blood and Ficoll phases. The mixture was centrifuged at 2000 RPM for 25 minutes at room temperature (9 acceleration and no braking). The buffy coat containing the peripheral blood mononuclear cells (PBMCs) was collected, transferred to a new tube, and centrifuged for five minutes at 400 RCF. PBMCs were washed three times with phosphate buffered saline (PBS) containing 1% fetal bovine serum (FBS) or fetal calf serum (FCS) and counted. The PBMC cells thus obtained were stained with different antibodies to quantify percentage of different immune cell subsets in peripheral blood.
On day 14 mice were bled and PBMCs were harvested. […]
(In flow cytometry, cells or beads pass a laser one at a time.)

As for `CC[C@@H]1[C@H](F)C(=O)N[C@@H]1COc1nccc2cc(C(N)=O)c(OC)cc12` [zimlovisertib, 1-[[(2S,3S,4S)-3-Ethyl-4-fluoro-5-oxo-2-pyrrolidinyl]methoxy]-7-methoxy-6-isoquinolinecarboxamide], the “Phosphorylation of NFkB induced by LPS” value in experiment [1] was “blocks phosphorylation of NFkB at 400 nM and 2000 nM”.
As for `O=C1CCC(N2C(=O)c3cccc(NCc4cn(CCCNC(=O)c5ccc(-n6cc(NC(=O)c7coc(-c8ccnc(NCC9CC9)c8)n7)c(C(F)(F)F)n6)cc5)cn4)c3C2=O)C(=O)N1` (centres unmarked) [PROTAC IRAK4 degrader-1], in experiment [2], the “IRAK4 protein expression in all immune cell types evaluated in PBMCs (PBMCs, T cells, B cells, monocytes)” value is given as “reduced significantly”.

(Values after US20230405151A1, “USE OF IRAK4 MODULATORS FOR GENE THERAPY” (Genzyme Corporation, priority 2022, published 2023).)
